Data from patent US6723751B1, “Crystalline forms of the sodium salt of 5-chloro-2-methoxy-N-(2-(4-methoxy-3-methylaminothiocarbonylaminosulfonylpenyl)ethyl)benzamide” (Aventis Pharma Deutschland GmbH, priority 1999, dated 2004).
One block for each molecule: values may come before it.

What was measured:
[1] = Solubility investigations in water; format: physicochemical; settings: for Total amount of substance that could be dissolved: in 2 ml of water at 20° C. to 25° C.; for Time to go into solution: portions of 50 to 100 mg stirred into 2.0 ml of water at room temperature
Experimental: The substance was introduced with stirring into 2.0 ml of water at room temperature in portions of 50 to 100 mg. It went into solution in the course of a few minutes with initial clumping. In this way, a total of up to 500 mg of substance could be dissolved in 2 ml of water at 20° C to 25° C.
100 mg of the substance were introduced into 2.0 ml of water, a readily stirrable suspension being formed. […] On warming the suspension to 35° C. to 37° C., the substance went into solution within 20 minutes.
The substance was introduced with stirring into 2.0 ml of water at room temperature in portions of 50 to 100 mg. After introduction, the substance was initially present as a granular, readily stirrable solid that then went into solution in the course of a few minutes. In this way, a total of up to 360 mg of substance could be dissolved in 2 ml of water at 20° C. to 25° C.
The substance was introduced with stirring into 2.0 ml of water at room temperature in portions of 50 to 100 mg. It went into solution in the course of a few minutes with initial clumping. In this way, a total of up to 620 mg of substance could be dissolved in 2 ml of water at 20° C. to 25° C.

[2] = Hygroscopicity investigations: water vapor sorption (DVS-1 Dynamic Vapour Sorption Analyser); format: physicochemical; settings: 25° C., equilibrium
Experimental: The water vapor sorption of the crystal modifications according to the invention was investigated at a temperature of 25° C. on substance samples of about 12 to 16 mg using a DVS-1 Dynamic Vapour Sorption Analyser from Surface Measurement Systems. The measurements were carried out in a nitrogen atmosphere whose relative humidity was altered stepwise. The weight of the sample was recorded at each relative humidity after establishment of the equilibrium, which is when a change in weight of the sample no longer took place. For a series of increasing relative humidities, the water contents of the substance samples, which were determined from the change in weight compared with the starting weights, are indicated in percent.

Total amount of substance that could be dissolved [1]: up to 620 mg
Time to go into solution [1]: a few minutes
SMILES: CNC(=S)[N-]S(=O)(=O)c1cc(CCNC(=O)c2cc(Cl)ccc2OC)ccc1OC.[Na+] [Crystal Modification 4, sodium salt of 5-chloro-2-methoxy-N-(2-(4-methoxy-3-methylaminothiocarbonylaminosulfonylphenyl)ethyl)benzamide]

Water content ([2]; relative humidity 18.5 %): 0.04%
Water content ([2]; relative humidity 39.9 %): 0.06%
Water content ([2]; relative humidity 61.5 %): 0.08%
Water content ([2]; relative humidity 81.9 %): 0.10%
Water content ([2]; relative humidity 91.7 %): 0.13%
State of solution on cooling ([1]; 100 mg in 2.0 ml of water, cooled from 35° C. to 37° C. to 20° C. to 25° C.): remained clearly dissolved
Time to go into solution on warming ([1]; 100 mg in 2.0 ml of water, suspension warmed to 35° C. to 37° C.): ≤ 20 min
Dissolution of 100 mg in 2.0 ml of water ([1]; after stirring at 20° C. to 25° C. for 2 h): a clear solution was still not formed
SMILES: CNC(=S)[N-]S(=O)(=O)c1cc(CCNC(=O)c2cc(Cl)ccc2OC)ccc1OC.[Na+] [Crystal Modification 2, sodium salt of 5-chloro-2-methoxy-N-(2-(4-methoxy-3-methylaminothiocarbonylaminosulfonylphenyl)ethyl)benzamide]

Water content ([2]; relative humidity 18.4 %): 0.30%
Water content ([2]; relative humidity 39.6 %): 0.65%
Water content ([2]; relative humidity 61.0 %): 1.39%
Water content ([2]; relative humidity 81.1 %): 2.04%
Water content ([2]; relative humidity 91.0 %): 5.72%
Total amount of substance that could be dissolved [1]: up to 500 mg
Time to go into solution [1]: a few minutes
SMILES: CNC(=S)[N-]S(=O)(=O)c1cc(CCNC(=O)c2cc(Cl)ccc2OC)ccc1OC.[Na+] [Crystal Modification 1, sodium salt of 5-chloro-2-methoxy-N-(2-(4-methoxy-3-methylaminothiocarbonylaminosulfonylphenyl)ethyl)benzamide]

Water content ([2]; relative humidity 18.7 %): 0.06%
Water content ([2]; relative humidity 40.1 %): 0.21%
Water content ([2]; relative humidity 61.4 %): 0.38%
Water content ([2]; relative humidity 81.3 %): 0.65%
Water content ([2]; relative humidity 91.0 %): 0.79%
Total amount of substance that could be dissolved [1]: up to 360 mg
Time to go into solution [1]: a few minutes
SMILES: CNC(=S)[N-]S(=O)(=O)c1cc(CCNC(=O)c2cc(Cl)ccc2OC)ccc1OC.[Na+] [Crystal Modification 3, sodium salt of 5-chloro-2-methoxy-N-(2-(4-methoxy-3-methylaminothiocarbonylaminosulfonylphenyl)ethyl)benzamide]
